According to ChEMBL document CHEMBL3286115, “Design and Syntheses of Anti-Tuberculosis Agents Inspired by BTZ043 Using a Scaffold Simplification Strategy” (ACS Med Chem Lett, 2014):
Values after ≈ are worked out from the molar mass of the structure shown. Active and inactive are the calls of the source. The rule behind the calls is not given here.

What was measured:
[1] = test system: Mycobacterium tuberculosis; experiment: Antimycobacterial activity against Mycobacterium tuberculosis H37Rv in 7H12 medium by microplate alamar blue assay; type: functional
[2] = test system: Mycobacterium tuberculosis; experiment: Antimycobacterial activity against Mycobacterium tuberculosis H37Rv in GAS medium by microplate alamar blue assay; type: functional
Vero = experiment: Cytotoxicity against African green monkey Vero cells; type: cell-based; conditions: chlorocebus sabaeus
[3] = test system: Mycobacterium tuberculosis; experiment: Antimycobacterial activity against non-replicating Mycobacterium tuberculosis H37Rv by low oxygen recovery assay; type: functional, organism-based
[4] = test system: Mycobacterium tuberculosis; experiment: Antimycobacterial activity against Mycobacterium tuberculosis H37Rv; type: functional

Structure (SMILES)	MIC [1] [µM]	MIC [2] [µM]	Activity (Vero)	Activity [3]	MIC [4] [ng/mL]
C[C@H]1COC2(CCC(C(=O)Nc3cc([N+](=O)[O-])cc(C(F)(F)F)c3)CC2)O1 (stereo partly drawn)	23 (≈ 8.93 µg/mL)	18.4 (≈ 7.15 µg/mL)			
C[C@H]1COC2(CCN(S(=O)(=O)c3cc([N+](=O)[O-])cc([N+](=O)[O-])c3)CC2)O1	1.53 (≈ 0.593 µg/mL)	2.05 (≈ 0.794 µg/mL)	Non-toxic	Active	
O=C(OCc1ccccc1)c1cc([N+](=O)[O-])cc(C(F)(F)F)c1	> 50	2.03 (≈ 0.66 µg/mL)			
C[C@H]1COC2(CCN(S(=O)(=O)c3cc([N+](=O)[O-])cc(C(F)(F)F)c3)CC2)O1	6.99 (≈ 2.87 µg/mL)	10.2 (≈ 4.19 µg/mL)	Toxic	Active	
O=C(OCc1ccccc1)c1cc([N+](=O)[O-])cc([N+](=O)[O-])c1	13 (≈ 3.94 µg/mL)	0.27 (≈ 0.0816 µg/mL)			
C[C@H]1COC2(CCN(S(=O)(=O)c3cc(-c4ccccc4)cc(C(F)(F)F)c3)CC2)O1	> 64	17.4 (≈ 7.68 µg/mL)			
C[C@H]1COC2(CCN(c3nc(=O)c4cc(C(F)(F)F)cc([N+](=O)[O-])c4s3)CC2)O1 [BTZ-043]	< 0.02	< 0.02			1 (≈ 2.32 nM)
C[C@H]1COC2(CCN(S(=O)(=O)c3cc(Br)cc(C(F)(F)F)c3)CC2)O1	> 10				
C[C@H]1COC2(CCN(S(=O)(=O)c3cc(-c4cccc[n+]4[O-])cc(C(F)(F)F)c3)CC2)O1	> 64	> 64			
C[C@H]1COC2(CCC(C(=O)Nc3cc([N+](=O)[O-])cc([N+](=O)[O-])c3)CC2)O1 (stereo partly drawn)	47.9 (≈ 17.5 µg/mL)	22.6 (≈ 8.26 µg/mL)			
C[C@H]1COC2(CCN(S(=O)(=O)c3cc(-c4ccccn4)cc(C(F)(F)F)c3)CC2)O1	> 50	49.3 (≈ 21.8 µg/mL)			
C[C@H]1COC2(CCC(C(=O)Nc3cccc(C(F)(F)F)c3)CC2)O1 (stereo partly drawn)	> 50	17.9 (≈ 6.15 µg/mL)			
